The values that follow come from US10294229B2, “Heteroaryl substituted aminopyridine compounds” (BRISTOL-MYERS SQUIBB COMPANY, priority 2015, dated 2019).

Assay [1] relates to Human whole blood stimulated with a TLR2 agonist (lipoteichoic acid), IL-6 levels. Kind of assay: IRAK4 Whole Blood Assay. The class given is cell-based. Conditions: Homo sapiens, lipoteichoic acid 10 μg/mL. A digest of the protocol: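 ACD-A-anticoagulated human whole blood was preincubated with compounds for 60 min at 37 °C under 5% CO2. It was then stimulated with 10 μg/mL lipoteichoic acid (final) in RPMI for 5 h. IL-6 in plasma supernatants was measured by flow cytometry bead assay.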

Another assay has as its target IRAK4 (Homo sapiens (Human), UniProt Q9NWZ3). Briefly: IRAK4 Inhibition Assay. The class given is biochemical. As to conditions: ATP 500 μM; IRAK4 0.6 nM. Summed up:
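Mobility-shift readout: phosphorylated and unphosphorylated fluorescent peptide (1.5 μM) resolved by electrophoresis after a 60 min room-temperature reaction stopped with EDTA. Reaction holds 0.6 nM IRAK4, 500 μM ATP and 1.6% DMSO in HEPES pH 7.2/MgCl2/Brij 35/DTT buffer; percent inhibition set against vehicle and no-enzyme controls.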

Sequence of IRAK4 (Q9NWZ3 whole entry, species assumed): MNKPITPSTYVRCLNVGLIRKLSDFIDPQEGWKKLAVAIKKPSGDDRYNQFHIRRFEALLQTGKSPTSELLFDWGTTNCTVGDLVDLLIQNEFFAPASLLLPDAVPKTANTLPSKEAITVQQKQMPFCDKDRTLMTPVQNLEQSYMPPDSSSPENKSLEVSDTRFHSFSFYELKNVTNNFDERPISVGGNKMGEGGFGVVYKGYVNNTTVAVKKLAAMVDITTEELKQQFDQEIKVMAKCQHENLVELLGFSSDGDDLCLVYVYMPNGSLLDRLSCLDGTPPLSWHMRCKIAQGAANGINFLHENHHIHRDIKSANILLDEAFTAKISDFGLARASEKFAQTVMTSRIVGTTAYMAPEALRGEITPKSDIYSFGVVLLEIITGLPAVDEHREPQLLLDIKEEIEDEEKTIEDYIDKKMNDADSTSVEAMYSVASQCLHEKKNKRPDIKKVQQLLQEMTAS

`CCCn1cc(-c2cnc(-n3ncc4cc(C#N)cnc43)cc2Nc2cnn(CC(F)F)c2)cn1` [Example 256, 1-(4-((1-(2,2-difluoroethyl)-1H-pyrazol-4-yl)amino)-5-(1-propyl-1H-pyrazol-4-yl)pyridin-2-yl)-1H-pyrazolo[3,4-b]pyridine-5-carbonitrile] yielded an EC50 in assay [1] of 600 nM. The concentration for half-maximal inhibition (IC50) on IRAK4 is 14 nM.
`CC(C)Nc1cc(-n2ncc3cc(C#N)cnc32)ncc1-n1cc(C2CCCC2)nn1` [Example 266, 1-(5-(4-cyclopentyl-1H-1,2,3-triazol-1-yl)-4-(isopropylamino)pyridin-2-yl)-1H-pyrazolo[3,4-b]pyridine-5-carbonitrile]: in assay [1], the EC50 came out at 520 nM. Besides, the IC50 at IRAK4 was 14 nM.
`CCCc1cn(-c2cnc(-n3ncc4cc(C#N)c(N)nc43)cc2NC2COC2)nn1` [Example 281, 6-amino-1-(4-(oxetan-3-ylamino)-5-(4-propyl-1H-1,2,3-triazol-1-yl)pyridin-2-yl)-1H-pyrazolo[3,4-b]pyridine-5-carbonitrile]: a half-maximal effect in assay [1] (EC50) was put at 380 nM. Besides, at IRAK4, the IC50 came out at 7 nM.
In turn, `CCCc1cn(-c2cnc(-n3ncc4cc(Cl)cnc43)cc2NC(C)C)nn1` [Example 282, 2-(5-chloro-1H-pyrazolo[3,4-b]pyridin-1-yl)-N-isopropyl-5-(4-propyl-1H-1,2,3-triazol-1-yl)pyridin-4-amine] had an EC50 in assay [1] of 2260 nM. Besides, the IC50 at IRAK4 was 13 nM.
In assay [1], `CCCc1cn(-c2cnc(-n3ncc4cc(C#N)cnc43)cc2NC2CCOCC2)nn1` [Example 283, 1-(5-(4-propyl-1H-1,2,3-triazol-1-yl)-4-((tetrahydro-2H-pyran-4-yl)amino)pyridin-2-yl)-1H-pyrazolo[3,4-b]pyridine-5-carbonitrile] came in with an EC50 of 1280 nM. Besides, at IRAK4, the concentration for half-maximal inhibition (IC50) is 7 nM.
`CCCc1cn(-c2cnc(-n3cnc4cc(C#N)cnc43)cc2N[C@@H](C)CO)nn1` [Example 285, (S)-3-(4-((1-hydroxypropan-2-yl)amino)-5-(4-propyl-1H-1,2,3-triazol-1-yl)pyridin-2-yl)-3H-imidazo[4,5-b]pyridine-6-carbonitrile] returned an EC50 in assay [1] of 6400 nM. Moreover, the IC50 at IRAK4 came out at 17 nM.
`CCC(O)Cc1cn(-c2cnc(-n3ncc4cc(C#N)cnc43)cc2NC(C)C)nn1` (stereo not shown) [Example 303, 1-(5-(4-(2-hydroxybutyl)-1H-1,2,3-triazol-1-yl)-4-(isopropylamino)pyridin-2-yl)-1H-pyrazolo[3,4-b]pyridine-5-carbonitrile]: in assay [1], the EC50 came out at 1180 nM. In addition, the half-inhibitory concentration (IC50) on IRAK4 turned out to be 16 nM.
On the same counts, the results for `CC(C)Cc1cn(-c2cnc(-n3ncc4cc(C#N)cnc43)cc2NC(C)C)nn1` [Example 305, 1-(5-(4-isobutyl-1H-1,2,3-triazol-1-yl)-4-(isopropylamino)pyridin-2-yl)-1H-pyrazolo[3,4-b]pyridine-5-carbonitrile] are 550 nM and 10 nM.
With `CC(C)CCc1cn(-c2cnc(-n3ncc4cc(C#N)cnc43)cc2NC(C)C)nn1` [Example 307, 1-(5-(4-isopentyl-1H-1,2,3-triazol-1-yl)-4-(isopropylamino)pyridin-2-yl)-1H-pyrazolo[3,4-b]pyridine-5-carbonitrile], the EC50 in assay [1] was 580 nM. Besides, the IC50 at IRAK4 was 3 nM.
The matching figures for `CC(C)Nc1cc(-n2ncc3cc(C#N)cnc32)ncc1-n1cc(C[C@@H](O)c2ccccc2)nn1` [Example 315, (R)-1-(5-(4-(2-hydroxy-2-phenylethyl)-1H-1,2,3-triazol-1-yl)-4-(isopropylamino)pyridin-2-yl)-1H-pyrazolo[3,4-b]pyridine-5-carbonitrile]: 1780 nM and 5 nM.
Consider `CC(C)Nc1cc(-n2ncc3cc(C#N)cnc32)ncc1-n1cc(CCc2ccccc2)nn1` [Example 319, 1-(4-(isopropylamino)-5-(4-phenethyl-1H-1,2,3-triazol-1-yl)pyridin-2-yl)-1H-pyrazolo[3,4-b]pyridine-5-carbonitrile], for which, in assay [1], the EC50 came out at 920 nM. In addition, the IC50 on IRAK4 turned out to be 2 nM.
The matching figures for `CCCCc1cn(-c2cnc(-n3ncc4cc(C#N)cnc43)cc2NC(C)C)nn1` [Example 320, 1-(5-(4-butyl-1H-1,2,3-triazol-1-yl)-4-(isopropylamino)pyridin-2-yl)-1H-pyrazolo[3,4-b]pyridine-5-carbonitrile]: 930 nM and 3 nM.
The matching figures for `CC(C)Nc1cc(-n2ncc3cc(C#N)cnc32)ncc1-n1cc(CCC#N)nn1` [Example 321, 1-(5-(4-(2-cyanoethyl)-1H-1,2,3-triazol-1-yl)-4-(isopropylamino)pyridin-2-yl)-1H-pyrazolo[3,4-b]pyridine-5-carbonitrile]: 570 nM and 18 nM.
`CC(C)Nc1cc(-n2ncc3cc(C#N)cnc32)ncc1-n1cc(CCCC#N)nn1` [Example 323, 1-(5-(4-(3-cyanopropyl)-1H-1,2,3-triazol-1-yl)-4-(isopropylamino)pyridin-2-yl)-1H-pyrazolo[3,4-b]pyridine-5-carbonitrile]: the EC50 in assay [1] was determined as 1310 nM. Further, the IC50 at IRAK4 came to 6 nM.
Turning to `CCN(CC)Cc1cn(-c2cnc(-n3ncc4cc(C#N)cnc43)cc2NC(C)C)nn1` [Example 324, 1-(5-(4-((diethylamino)methyl)-1H-1,2,3-triazol-1-yl)-4-(isopropylamino)pyridin-2-yl)-1H-pyrazolo[3,4-b]pyridine-5-carbonitrile], the EC50 in assay [1] came out at 3410 nM. For the same compound, on IRAK4, the IC50 came out at 18 nM.
`CCc1cn(-c2cnc(-n3ncc4cc(C#N)cnc43)cc2NC(C)C)nn1` [Example 325, 1-(5-(4-ethyl-1H-1,2,3-triazol-1-yl)-4-(isopropylamino)pyridin-2-yl)-1H-pyrazolo[3,4-b]pyridine-5-carbonitrile] showed an EC50 in assay [1] of 990 nM. Also, at IRAK4, the half-inhibitory concentration (IC50) was 16 nM.
The matching figures for `CC(C)Nc1cc(-n2ncc3cc(C#N)cnc32)ncc1-n1cc(CS(=O)(=O)c2ccccc2)nn1` [Example 332, 1-(4-(isopropylamino)-5-(4-((phenylsulfonyl)methyl)-1H-1,2,3-triazol-1-yl)pyridin-2-yl)-1H-pyrazolo[3,4-b]pyridine-5-carbonitrile]: 2050 nM and 9 nM.
Take `CC(C)Nc1cc(-n2ncc3cc(C#N)cnc32)ncc1-n1cc(C2CCN(C(=O)OC(C)(C)C)CC2)nn1` [Example 333, tert-butyl 4-(1-(6-(5-cyano-1H-pyrazolo[3,4-b]pyridin-1-yl)-4-(isopropylamino)pyridin-3-yl)-1H-1,2,3-triazol-4-yl)piperidine-1-carboxylate]: in assay [1], the EC50 was determined as 4700 nM. Moreover, on IRAK4, the 50% inhibitory concentration (IC50) was found to be 14 nM.
The matching figures for `CC(=O)N1CCC(c2cn(-c3cnc(-n4ncc5cc(C#N)cnc54)cc3NC(C)C)nn2)CC1` [Example 335, 1-(5-(4-(1-acetylpiperidin-4-yl)-1H-1,2,3-triazol-1-yl)-4-(isopropylamino)pyridin-2-yl)-1H-pyrazolo[3,4-b]pyridine-5-carbonitrile]: 630 nM and 6 nM.
On the same counts, the results for `CC(C)Nc1cc(-n2ncc3cc(C#N)cnc32)ncc1-n1cc(C2CCC(N)CC2)nn1` (stereo not shown) [Example 340, 1-(5-(4-((1s,4s)-4-aminocyclohexyl)-1H-1,2,3-triazol-1-yl)-4-(isopropylamino)pyridin-2-yl)-1H-pyrazolo[3,4-b]pyridine-5-carbonitrile] are 810 nM and 4 nM.

The EC50 is the midpoint of the concentration-response curve. Higher therefore signals a need for much substance. For orientation: IC50 means the concentration that gives 50% inhibition.
